Experimental data from patent US20260207759A1, “COMPOSITION OF CD40-BINDING MOLECULE AND PHARMACEUTICAL USE THEREOF” (SUZHOU SUNCADIA BIOPHARMACEUTICALS CO., LTD., priority 2022, published 2026).

Tests used:
[1] = molecular target: T1, CD40 (Homo sapiens, UniProt P25942); test: Reporter gene cell activity of chimeric anti-CD40 antibodies (HEK-Blue CD40L cells, CD40L-induced SEAP); assay type: cell-based; design: host or cells: HEK-Blue CD40L cells; details: CD40L-stimulated HEK-Blue CD40L cells
Protocol: HEK-Blue CD40L cells were purchased from Invivogen (Cat. #hkb-cd40). The cells were stably transfected with the human CD40 gene and the NF-kB-mediated SEAP genome. The activation level of the CD40 signaling pathway can be characterized by detecting the secreted SEAP in the supernatant using QUANTI-Blue, the substrate of SEAP. In this experiment, the in vitro antagonist activity of anti-CD40 antibodies was assessed according to IC50 by detecting the activation of HEK-Blue CD40L cells by CD40L. HEK-Blue CD40L cells were cultured in a DMEM medium containing 10% FBS, 100 μg/mL Zeocin, and 30 μg/mL Blasticidin, and passaged 2-3 times in a week at a ratio of 1:5 or 1:10. During passaging, the medium was pipetted off, and the cell layer was rinsed with 5 mL of 0.25% pancreatin. Then the pancreatin was pipetted off, the cells were digested in an incubator for 3-5 min, and then a fresh medium was added to resuspend cells. 100 μL of cell suspension was added to a 96-well cell culture plate at a density of 5×10^5 cells/mL. The medium was DMEM containing 10% FBS, 100 μg/mL Zeocin, and 30 μg/mL Blasticidin. Only 100 μL of sterile water was added to the peripheral wells of the 96-well plate. […] The absorbance at 630 nm was measured with a microplate reader (Thermo MultiSkanFc), and IC50 values were calculated and used to assess the in vitro cell activity of the anti-CD40 antibodies.

[2] = molecular target: T2, Raji cell surface human CD40 (Homo sapiens, UniProt P25942); test: FACS binding of humanized anti-CD40 antibodies to Raji cells
T2 construct: Raji cells highly express human CD40 on the cell surface; endogenous in cells; host or cells: Raji cells
Protocol: Raji cells highly express human CD40 on the cell surface and thus can be used to detect the binding properties of CD40 antagonistic antibodies to the cell surface human CD40.
Raji cells were plated at 1.5E5 cells/well, and various concentrations of CD40 antagonistic antibodies were added. The plate was incubated at 4° C. for 1 h. After two washes with FACS buffer (PBS+2% FBS), a secondary antibody (Alexa Flour488 conjugated anti-human IgG (H+L) antibody) was added, and the plate was incubated at 4° C. for 0.5 h. After two washes with FACS buffer, the fluorescence intensity on the cell surface was measured by flow cytometry (BD FACS Celesta).

[3] = system: human CD40 transgenic mice; test: Mouse skin graft rejection model (antibodies, tacrolimus combination); assay type: in vivo
Excerpt: Male Balb/c mice, 6 weeks old, were purchased from the Laboratory Animal Management Department, Shanghai Institute of Planned Parenthood Research. Housing environment: SPF; certification number: 20180006023393.
On day-2 of the experiment, the mice were intraperitoneally injected with tacrolimus FK506 or CD40 antagonistic antibodies. On day 0 of the experiment, donor Balb/c mice and C57BL6/J mice were anesthetized with 4% chloral hydrate. The tails of the donor mice were removed, and full circles of skin, 1 cm in length, were isolated from the tails. The hair on the acceptor mice's back was removed, and an incision was made along the skin layer. An equal area of skin was removed while preserving the back fat and connective tissue. The donor skin was placed on the acceptor mice's incision site, and the incision was closed with glue. The mice were then placed back in cages to recover.
The mice were dosed according to the administration regimens in Table 16. After 7 days of recovery, the mouse skin survival was observed daily and rejection scores were recorded.

[4] = molecular target: T1, CD40; test: B cell activation assay system (human PBMCs, CD40L-induced CD19+CD69+); assay type: cell-based; design: endogenous in cells; host or cells: human PBMCs (B cells); DCs differentiated from human CD14+ monocytes; details: CD40L stimulation overnight
Protocol: CD40 is highly expressed in B cells, and CD40L, upon binding to CD40, can induce B cell activation and up-regulate the expression of a series of activation markers. CD40 antagonistic antibodies block the binding of CD40L to CD40, thereby eliminating the immune activation process of B cells.
Human PBMCs were plated at 2E5 cells/well and 50 μL/well into a 96-well cell culture plate (the medium was RPMI-1640 containing 10% FBS and 1% penicillin-streptomycin). Serially diluted test antibodies were added at 50 μL/well, and the cells were co-incubated at 37° C. in 5% CO2 for 0.5 h. CD40L-his and an anti-His antibody were added to each well for overnight stimulation. The following day, the plate was centrifuged, the supernatant was removed, and the cells were washed twice with FACS buffer and stained at room temperature for 15 min with 100 μL of Fixable viability dye EF780 (Invitrogen, 65086514) diluted at 1:1000. The cells were washed twice and then blocked at room temperature for 10 min with 100 μL of human Fc blocker (BD, 564220) diluted at 1:200. After centrifugation, the cells were incubated at 4° C. for 0.5 h with flow cytometry antibodies (PerCP/Cyanine5.5 anti-human CD19 (Biolegend, 302230), and APC anti-human CD69 (Biolegend, 310910)) diluted at 1:200. After centrifugation, the supernatant was removed, the cells were washed twice with FACS buffer and then resuspended in 200 μL of PBS, and the fluorescence intensity on the cell surface was measured by a flow cytometer (BD FACS Celesta).
With reference to the method in Example 10, the inhibitory activity of the anti-CD40 antibody 9E6-L4H2-AAYTE carrying the AAYTE mutation in the Fc in the B cell activation assay system was measured.

T1 sequence (P25942 21-277): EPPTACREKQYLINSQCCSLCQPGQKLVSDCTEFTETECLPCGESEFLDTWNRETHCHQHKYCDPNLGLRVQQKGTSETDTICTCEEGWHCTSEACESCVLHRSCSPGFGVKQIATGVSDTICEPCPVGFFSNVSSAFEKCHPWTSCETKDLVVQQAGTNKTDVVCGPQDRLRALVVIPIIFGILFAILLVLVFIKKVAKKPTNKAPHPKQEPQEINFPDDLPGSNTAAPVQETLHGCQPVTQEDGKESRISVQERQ
T2 sequence (P25942 21-277): as above

Substance: CFZ533: anti-CD40 antagonistic antibody CFZ533 (i.e., iscalimab), positive control, variable regions from U.S. Pat. No. 8,277,810B
- IC50 [1]: 272 pM
- EC50 [2]: 1010 pM
- Day-15 skin graft survival rate (%) ([3]; 3 mpk ip): 0%
- Skin graft score, 8 days ([3]; 3 mpk, score 3 (best) to 0 (rejected)): 2.7
- Skin graft score, 10 days ([3]; 3 mpk, score 3 to 0): 2.1
- Skin graft score, 15 days ([3]; 3 mpk, score 3 to 0): 0
- Skin graft score, 20 days ([3]; 3 mpk, score 3 to 0): 0
- Day-15 skin graft survival rate (%) ([3]; 10 mpk ip): 0%
- Skin graft score, 8 days ([3]; 10 mpk, score 3 to 0): 2.9
- Skin graft score, 10 days ([3]; 10 mpk, score 3 to 0): 2.1
- Skin graft score, 15 days ([3]; 10 mpk, score 3 to 0): 0
- Skin graft score, 20 days ([3]; 10 mpk, score 3 to 0): 0
- CD19+CD69+ % Maximum inhibition rate [4]: 95%
- CD19+CD69+ MFI Maximum inhibition rate [4]: 110%
- IC50 ([4]; read-out: CD19+CD69+ % IC50): 140 pM
- IC50 ([4]; read-out: CD19+CD69+ MFI IC50): 70 pM
